Results taken from ChEMBL document CHEMBL1156829 (Proc Natl Acad Sci U S A, 2008).

Assays:
Plasmodium falciparum [1] = assay: NOVARTIS: Inhibition of Plasmodium falciparum 3D7 (drug-susceptible) proliferation in erythrocyte-based infection assay; type: functional, organism-based
[2] = NOVARTIS: Cytotoxicity against human hepatocellular carcinoma cell line (Huh7); type: toxicity, cell-based, Huh-7; settings: Huh7 cells (hepatocellular carcinoma cell line)
Plasmodium falciparum [3] = assay: NOVARTIS: Inhibition of Plasmodium falciparum W2 (drug-resistant) proliferation in erythrocyte-based infection assay; type: functional, organism-based; settings: read-out: EC50

Row | Compound | EC50 (Plasmodium falciparum [1]; Plasmodium falciparum, 3D7) [nM] | CC50 [2] [nM] | EC50 (Plasmodium falciparum [3]; Plasmodium falciparum, W2) [nM] | EC50 (Plasmodium falciparum [1]) [nM] | EC50 (Plasmodium falciparum [3]) [nM]
1 | CC(c1nc2ccc(Cl)cc2c(=O)n1C)N1CCN(C(=O)C(C)(C)C)CC1 (stereo not drawn) | 1470 | > 10000 | 860 | – | –
2 | CN(C)c1cc(NC(=O)Nc2cccc(Cl)c2)c2ccccc2n1 | 76.5 | > 10000 | 292 | – | –
3 | COc1ccccc1CNc1ncc(C(=O)NCc2ccccc2)c(NCCc2ccccc2)n1 | 1280 | > 10000 | > 1300 | – | –
4 | O=C(OCCOc1ccc([N+](=O)[O-])cc1)c1ccc(Br)o1 | 782 | > 10000 | > 1250 | – | –
5 | CCc1ccc2[nH]c(=O)c(CN(Cc3ccc(OC)cc3)C(=S)NCCCN(CC)CC)cc2c1 | 3460 | 18200 | 554 | – | –
6 | CCOC(=O)c1ccc2nc(-c3ccccc3)cc(O)c2c1 | 549 | > 100000 | 493 | – | –
7 | CCOC(=O)C1=C(N)n2c(sc(=Cc3cccnc3)c2=O)=C(C(=O)OC)C1c1cccnc1 (stereo not drawn) | > 1250 | > 10000 | > 922 | – | –
8 | COc1ccc(C=CC(=O)Nc2ccncc2)cc1OC | 358 | > 100000 | 1070 | – | –
9 | COc1ccc(N(CCCNC(=O)CCl)C(=O)Nc2cccc(Cl)c2)cc1 | > 1600 | > 10000 | 1150 | – | –
10 | Cc1sc2nc(CN(C(=O)CCc3ccccc3)C3CCCCC3)[nH]c(=O)c2c1C | > 1250 | 1940 | 424 | – | –
11 | COc1cc(NC(C)CCCN(Cc2ccc(OC)c(OC)c2)C(=O)Nc2cccc(Cl)c2Cl)c2ncccc2c1 (stereo not drawn) | 691 | 6290 | 203 | – | –
12 | O=C(Nc1ccc(-n2cnnn2)cc1)C1CCN(Cc2cc3ccccc3o2)CC1 | 198 | > 61900 | 416 | – | –
13 | CC(=O)N1c2ccc([N+](=O)[O-])cc2C(C)(c2ccccc2)CC1(C)C (stereo not drawn) | 1100 | > 100000 | 61.2 | – | –
14 | CCc1c(C)c(C#N)c2nc3ccccc3n2c1NCc1ccco1 | 271 | > 100000 | 333 | – | –
15 | c1ccc(N=c2n(-c3ccccc3)c(=Nc3ccccc3)n(-c3ccccc3)c(=Nc3ccccc3)n2-c2ccccc2)cc1 | > 1350 | > 10000 | > 468 | – | –
16 | Cc1ccccc1C(=O)NCCCCNc1ccnc2cc(Cl)ccc12 | 450 | > 10000 | 479 | – | –
17 | CCCCN(CCCC)[P+](N(CCCC)CCCC)(N(CCCC)CCCC)N(CCCC)CCCC | 224 | 784 | 65.4 | – | –
18 | COc1cc2c(cc1OC)C(=NN=C1NC(C)(C)Cc3ccccc31)NC(C)(C)C2 | 1040 | > 10000 | > 1250 | – | –
19 | CCOc1ccc(-c2nonc2NC(=O)c2ccco2)cc1OCC | 590 | > 100000 | 481 | – | –
20 | Oc1ccccc1-c1nc2sc(-c3ccccc3O)nc2s1 | > 989 | > 10000 | 467 | – | –
21 | CC1C(Br)C(=O)C(Br)C(C)C12CCCC2 (stereo not drawn) | > 1250 | > 10000 | > 871 | – | –
22 | O=C(O)C=CC(=O)N(C1CCCCC1)C1CCCCC1 | > 12500 | > 100000 | 1860 | – | –
23 | CN(C=Cc1sc2ccc3ccccc3c2[n+]1C)c1ccccc1 | – | 64300 | – | 239 | 153
24 | Cc1cccc(N(C)c2nc3ccccc3c3nnc(C)n23)c1 | 119 | > 100000 | 134 | – | –
25 | COc1ccc(-c2cn3c([n+]2-c2ccccc2)SCC3)cc1 | 582 | > 100000 | 709 | – | –
26 | CC(=O)Nc1ccc(S(=O)(=O)Nc2ccccc2[N+](=O)[O-])cc1 | 677 | > 10000 | 1400 | – | –

Row | Compound | EC50 (Plasmodium falciparum [1]; Plasmodium falciparum, 3D7) [nM] | CC50 [2] [nM] | EC50 (Plasmodium falciparum [3]; Plasmodium falciparum, W2) [nM] | EC50 (Plasmodium falciparum [1]) [nM] | EC50 (Plasmodium falciparum [3]) [nM]
27 | O=C(Nc1ccc(Cl)c(Cl)c1)Nc1cc(C(=O)NCCCN2CCCCCC2)ccc1Cl | 791 | > 43000 | 1420 | – | –
28 | CC(Cc1ccsc1)Nc1nc2nonc2nc1N(C)C (stereo not drawn) | 810 | > 100000 | 881 | – | –
29 | COc1cc(C(=O)Nc2nnc(-c3ccccc3)o2)cc(OC)c1OC | 5180 | > 100000 | > 12500 | – | –
30 | O=c1[nH]c2cc(Cl)c(Br)nc2[nH]1 | > 1250 | > 10000 | 1180 | – | –
31 | CC1CCN(CCCNc2ccc(C(=O)Nc3ccc(C(F)(F)F)cc3)cc2[N+](=O)[O-])CC1 | 199 | 23400 | 278 | – | –
32 | Cc1ccc2nc3c(c(Nc4ccc(N(C)C)cc4)c2c1)CCC3 | 1790 | 19800 | 950 | – | –
33 | COc1cccc(/C=C2/SC(=Nc3ccccc3)NC2=O)c1OC | > 1150 | > 10000 | > 1250 | – | –
34 | OCCNc1nc(Nc2ccc(Cl)c(Cl)c2)nc2ccccc12 | 140 | 9400 | 154 | – | –
35 | COc1cc2nc(SCC(C)C)n(CCCn3ccnc3)c(=N)c2cc1OC | 822 | 19900 | 926 | – | –
36 | COc1ccc(CCNc2nc(NCCCn3ccnc3)ncc2C(=O)NCC(C)C)cc1OC | 563 | > 6780 | > 1250 | – | –
37 | CCCn1c(=N)c(C(=O)NC(C)c2ccccc2)cc2c(=O)n3cccc(C)c3nc21 (stereo not drawn) | 1650 | > 100000 | 3530 | – | –
38 | CCOC(=O)c1cc(-c2ccc(OC)cc2)n(CCC(=O)NCc2ccc(OC)cc2)c1C | 987 | > 100000 | 781 | – | –
39 | CCOc1cc(C2CC(=O)NC3=C2C(=O)CC(C)(C)C3)ccc1OC(C)C (stereo not drawn) | 284 | > 100000 | 136 | – | –
40 | COc1cc2ncnc(NC3CCN(Cc4ccccc4)CC3)c2cc1OC | 400 | > 100000 | 485 | – | –
41 | CCOC(=O)C1=C(C)N(CCNc2ncc(C(F)(F)F)cc2Cl)C(=O)CC1 | 7670 | > 100000 | 8350 | – | –
42 | Cc1cc(C)c(NC(=S)N(CCCN2CCCCC2)Cc2cccs2)c(C)c1 | > 1540 | > 10000 | 179 | – | –
43 | O=C1N=C(N2CCOCC2)S/C1=C/c1cccc2ccccc12 | > 1250 | > 10000 | 329 | – | –
44 | Clc1ccc(CCNC2CCN(CCc3ccccc3)CC2)cc1 | 150 | 9600 | 696 | – | –
45 | O=C1C2C(C(=O)N1c1ccccc1F)C1(c3ccccc3)C(=O)C2(c2ccccc2)C(c2ccccc2)=C1c1ccccc1 (stereo not drawn) | 811 | > 100000 | 344 | – | –
46 | Nc1ccc(C(=O)NN=Cc2cccc([N+](=O)[O-])c2)cc1 | 298 | > 10000 | 112 | – | –
47 | CC(=NNc1nc(-c2ccccc2O)nc2ccccc12)c1ccccc1O | 742 | > 100000 | 206 | – | –
48 | COC(=O)C1=C(C)NC2=C(C(=O)CC(c3ccc(OC)c(OC)c3)C2)C1c1ccc(F)cc1 (stereo not drawn) | 27.9 | > 100000 | 14 | – | –
49 | Oc1c2c(nc3cc(-c4ccccc4)nn13)CCCC2 | 1930 | > 100000 | > 12500 | – | –
50 | COc1ccc(NC(=O)Cn2c(-c3ccc(OC)cc3)cn(-c3ccc(C)cc3)c2=O)cc1 | 889 | > 10000 | > 676 | – | –
51 | COc1ccc(N2CCN(c3ncnc4sc(C(=O)NCc5cccnc5)c(C)c34)CC2)cc1 | > 11200 | 20700 | > 8110 | – | –
